This passage reports EC50 results from US10308620B2, “Muscarinic M1 receptor positive allosteric modulators” (SUVEN LIFE SCIENCES LIMITED, priority 2015, dated 2019).

By EC50 is commonly meant the concentration at which the effect is half-maximal.

This experiment addresses recombinant human Muscarinic M1 receptor (Homo sapiens (Human), UniProt P11229). Put plainly: Allosteric potency EC50, CHO cells with pCRE-Luc reporter, in presence of EC20 of acetylcholine. The class given is cell-based. The note with it: 4 hours. The protocol:
Determination of Allosteric Potency EC50 Values for Muscarinic M1 Receptor:
A stable CHO cell line expressing recombinant human Muscarinic M1 receptor and pCRE-Luc reporter system was used for cell-based assay. The assay offers a non-radioactive based approach to determine binding of a compound to GPCRs. In this specific assay, the level of intracellular cyclic AMP which is modulated by activation or inhibition of the receptor is measured. The recombinant cells harbor luciferase reporter gene under the control of cAMP response element.
The above cells were grown in 96 well clear bottom white plates in Hams F12 medium containing 10% fetal bovine serum (FBS). Prior to the addition of compounds or standard agonist, cells were serum starved overnight. Increasing concentrations of test compounds were added along with EC20 of acetylcholine in OptiMEM medium to the cells. The incubation was continued at 37° C. in CO2 incubator for 4 hours. Medium was removed and cells were washed with phosphate buffered saline. The cells were lysed and luciferase activity was measured in a Luminometer. Luminescence units were plotted against the compound concentrations using Graphpad software. EC50 values of the compounds were defined as the concentration required in stimulating the luciferase activity by 50% in presence of EC20 of acetylcholine.

Molecules are shown by their SMILES. Where a name gives a salt, the structure may show the parent alone.

Chain of recombinant human Muscarinic M1 receptor (P11229 whole entry): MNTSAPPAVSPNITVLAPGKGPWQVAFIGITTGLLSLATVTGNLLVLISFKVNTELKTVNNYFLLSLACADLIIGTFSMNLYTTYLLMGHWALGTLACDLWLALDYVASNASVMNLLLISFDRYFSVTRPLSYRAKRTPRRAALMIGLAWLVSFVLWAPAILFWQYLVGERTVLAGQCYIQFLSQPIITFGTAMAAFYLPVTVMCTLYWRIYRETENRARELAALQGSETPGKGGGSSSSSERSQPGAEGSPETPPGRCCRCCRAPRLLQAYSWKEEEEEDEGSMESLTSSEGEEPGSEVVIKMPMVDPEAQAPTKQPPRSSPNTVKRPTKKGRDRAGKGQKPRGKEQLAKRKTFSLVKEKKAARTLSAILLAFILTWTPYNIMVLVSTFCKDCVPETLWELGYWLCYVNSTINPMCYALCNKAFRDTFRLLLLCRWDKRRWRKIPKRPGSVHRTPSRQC

Consider `Cn1ccc(-c2cc(CN3C=C(C(=O)N[C@H]4CCCC[C@@H]4O)Oc4ccccc43)ccn2)n1` [Example 59, N-(cis-1S,2S-2-Hydroxycyclohexyl)-4-[12-(1-methyl-1H-pyrazol-3-yl)-pyridin-4-ylmethyl]-4H-benzo[1,4]oxazine-2-carboxamide], for which the concentration giving a half-maximal response (EC50) was determined as 1010 nM.
As for `O=C(N[C@H]1CCCC[C@@H]1O)C1=CN(Cc2ccccc2F)c2c(F)ccc(F)c2O1` [Example 61, N-(cis-1S,2S-2-Hydroxycyclohexyl)-4-(2-fluorobenzyl)-5,8-difluoro-4H-benzo[1,4]oxazine-2-carboxamide], the EC50 is 219 nM.
Turning to `O=C(NC1CCNCC1F)C1=CN(Cc2ccccc2F)c2cccc(F)c2O1` (centres unmarked) [Example 73, N-(3-Fluoropiperidin-4-yl)-4-(2-fluorobenzyl)-8-fluoro-4H-benzo[1,4]oxazine-2-carboxamide hydrochloride], the EC50 is 2370 nM.
Consider `O=C(NC1CCNCC1F)C1=CN(Cc2cccc(F)c2F)c2cccc(F)c2O1` (centres unmarked) [Example 74, N-(3-Fluoropiperidin-4-yl)-4-(2,3-difluorobenzyl)-8-fluoro-4H-benzo[1,4]oxazine-2-carboxamide hydrochloride], for which the EC50 stood at 2100 nM.
Turning to `O=C(NC1CCNCC1O)C1=CN(Cc2cccc(F)c2F)c2cccc(F)c2O1` (centres unmarked) [Example 75, N-(3-Hydroxypiperidin-4-yl)-4-(2,3-difluorobenzyl)-8-fluoro-4H-benzo[1,4]oxazine-2-carboxamide trifluoroacetate], the EC50 is 160 nM.
Turning to `O=C(NC1CCNCC1O)C1=CN(Cc2ccccc2F)c2ccccc2O1` (centres unmarked) [Example 76, N-(3-Hydroxypiperidin-4-yl)-4-(2-fluorobenzyl)-4H-benzo[1,4]oxazine-2-carboxamide trifluoroacetate], the EC50 is 412 nM.
Take `O=C(N[C@H]1CCCC[C@@H]1O)C1=CN(Cc2cccc(F)c2F)c2ccccc2S1` [Example 85, N-(cis-1S,2S-2-Hydroxycyclohexyl)-4-(2,3-difluorobenzyl)-4H-benzo[1,4]thiazine-2-carboxamide]: the EC50 was 117 nM.
Next, `O=C(N[C@H]1CCCC[C@@H]1O)C1=CN(Cc2cccc(F)c2)c2ccccc2S1` [Example 86, N-(cis-1S,2S-2-Hydroxycyclohexyl)-4-(3-fluorobenzyl)-4H-benzo[1,4]thiazine-2-carboxamide]: 936 nM; `O=C(N[C@H]1CCCC[C@@H]1O)C1=CN(Cc2ccccc2)c2ccccc2S1` [Example 87, N-(cis-1S,2S-2-Hydroxycyclohexyl)-4-benzyl-4H-benzo[1,4]thiazine-2-carboxamide]: 131 nM; `COc1ccc(CN2C=C(C(=O)N[C@H]3CCCC[C@@H]3O)Sc3ccccc32)cc1` [Example 88, N-(cis-1S,2S-2-Hydroxycyclohexyl)-4-{4-methoxybenzyl}-4H-benzo[1,4]thiazine-2-carboxamide]: 145 nM.
Regarding `O=C(N[C@H]1CCCC[C@@H]1O)C1=CN(Cc2ccc(F)cc2)c2ccccc2S1` [Example 89, N-(cis-1S,2S-2-Hydroxycyclohexyl)-4-{4-fluorobenzyl}-4H-benzo[1,4]thiazine-2-carboxamide], the EC50 was found to be 460 nM.
In the case of `O=C(N[C@H]1CCCC[C@@H]1O)C1=CN(Cc2ccncc2)c2ccccc2S1` [Example 90, N-(cis-1S,2S-2-Hydroxycyclohexyl)-4-{pyridin-4-ylmethyl}-4H-benzo[1,4]thiazine-2-carboxamide], the EC50 came to 599 nM.
For the compound `O=C(N[C@H]1CCCC[C@@H]1O)C1=CN(Cc2ccc(Cl)nc2)c2ccccc2S1` [Example 91, N-(cis-1S,2S-2-Hydroxycyclohexyl)-4-{2-chloropyridin-5-ylmethyl}-4H-benzo[1,4]thiazine-2-carboxamide], the EC50 came out at 141 nM.
Next, `O=C(N[C@H]1CCCC[C@@H]1O)C1=CN(Cc2cccc(F)c2F)c2ccccc2[S+]1[O-]` (stereo partly drawn) [Example 93, N-(cis-1S,2S-2-Hydroxycyclohexyl)-4-(2,3-difluorobenzyl)-1-oxo-4H-benzo[1,4]thiazine-2-carboxamide]: 906 nM.
